Test results taken from PubChem BioAssay (NCI).
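Protocol summary: plate cells (96-well), add compound at 5 concentrations, incubate 48 h, interpolate endpoints linearly. TGI denotes the concentration required for complete inhibition of growth.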

What was measured:
Experiment in all cases: NCI tumour cell line growth inhibition, 48 h
[1] = tested on: 786-0 renal
[2] = tested on: A498 renal
[3] = tested on: A549 NSCLC
[4] = tested on: ACHN renal
[5] = tested on: CAKI-1 renal
[6] = tested on: CCRF-CEM leukemia
[7] = tested on: COLO 205 colon
[8] = tested on: DLD-1 colon
[9] = tested on: DMS 114 small cell lung
[10] = tested on: DMS 273 small cell lung
[11] = tested on: EKVX NSCLC
[12] = tested on: HCC-2998 colon
[13] = tested on: HCT-116 colon
[14] = tested on: HCT-15 colon
[15] = tested on: HL-60(TB) leukemia
[16] = tested on: HOP-18 NSCLC
[17] = tested on: HOP-62 NSCLC
[18] = tested on: HOP-92 NSCLC
[19] = tested on: HT29 colon
[20] = tested on: IGROV1 ovarian
[21] = tested on: K-562 leukemia
[22] = tested on: KM12 colon
[23] = tested on: KM20L2 colon
[24] = tested on: LOX IMVI melanoma
[25] = tested on: LXFL 529 NSCLC
[26] = tested on: M14 melanoma
[27] = tested on: M19-MEL melanoma
[28] = tested on: MALME-3M melanoma
[29] = tested on: MOLT-4 leukemia
[30] = tested on: NCI-H226 lung
[31] = tested on: NCI-H23 lung
[32] = tested on: NCI-H460 lung
[33] = tested on: NCI-H522 lung
[34] = tested on: OVCAR-3 ovarian
[35] = tested on: OVCAR-4 ovarian
[36] = tested on: OVCAR-5 ovarian
[37] = tested on: OVCAR-8 ovarian
[38] = tested on: RPMI-8226 leukemia
[39] = tested on: RXF 393 renal
[40] = tested on: RXF-631 renal
[41] = tested on: SF-268 CNS
[42] = tested on: SF-295 CNS
[43] = tested on: SF-539 CNS
[44] = tested on: SK-MEL-2 melanoma
[45] = tested on: SK-MEL-28 melanoma
[46] = tested on: SK-MEL-5 melanoma
[47] = tested on: SK-OV-3 ovarian
[48] = tested on: SN12C renal
[49] = tested on: SNB-19 CNS
[50] = tested on: SNB-75 CNS
[51] = tested on: SNB-78 CNS
[52] = tested on: SR leukemia
[53] = tested on: SW-620 colon
[54] = tested on: TK-10 renal
[55] = tested on: U251 CNS
[56] = tested on: UACC-257 melanoma
[57] = tested on: UACC-62 melanoma
[58] = tested on: UO-31 renal
[59] = tested on: XF 498 CNS

## COc1ccc(C2=NOP(c3ccccc3)(c3ccccc3)(c3ccccc3)C2)cc1
[1]
  TGI: > 53.4 µM
[2]
  TGI: 89.7 µM
[3]
  TGI: > 76.1 µM
[4]
  TGI: > 100 µM
[5]
  TGI: > 64 µM
[6]
  TGI: 39.6 µM
[7]
  TGI: 23.5 µM
[8]
  TGI: > 61.7 µM
[9]
  TGI: 26.2 µM
[10]
  TGI: > 47.6 µM
[11]
  TGI: > 100 µM
[12]
  TGI: > 76.5 µM
[13]
  TGI: 21.4 µM
[14]
  TGI: > 53 µM
[15]
  TGI: 14 µM
[16]
  TGI: > 100 µM
[17]
  TGI: > 100 µM
[18]
  TGI: 53.2 µM
[19]
  TGI: > 48.5 µM
[20]
  TGI: > 100 µM
[21]
  TGI: 31.4 µM
[22]
  TGI: > 100 µM
[23]
  TGI: > 76.2 µM
[24]
  TGI: 27.1 µM
[25]
  TGI: > 56.7 µM
[26]
  TGI: 41.9 µM
[27]
  TGI: 57.7 µM
[28]
  TGI: 50.9 µM
[29]
  TGI: 41.2 µM
[30]
  TGI: 98.4 µM
[31]
  TGI: > 72.5 µM
[32]
  TGI: > 45.1 µM
[33]
  TGI: 25.1 µM
[34]
  TGI: > 85.5 µM
[35]
  TGI: > 100 µM
[36]
  TGI: > 75.9 µM
[37]
  TGI: > 92.7 µM
[38]
  TGI: 33.5 µM
[39]
  TGI: 97.4 µM
[40]
  TGI: > 100 µM
[41]
  TGI: > 100 µM
[42]
  TGI: 61.2 µM
[43]
  TGI: > 100 µM
[44]
  TGI: > 60 µM
[45]
  TGI: > 100 µM
[46]
  TGI: 28.8 µM
[47]
  TGI: > 100 µM
[48]
  TGI: > 100 µM
[49]
  TGI: > 100 µM
[50]
  TGI: > 89.4 µM
[51]
  TGI: > 100 µM
[52]
  TGI: 34.9 µM
[53]
  TGI: > 56.2 µM
[54]
  TGI: > 100 µM
[55]
  TGI: > 93.1 µM
[56]
  TGI: 99.2 µM
[57]
  TGI: 53.2 µM
[58]
  TGI: > 100 µM
[59]
  TGI: 49.7 µM
